pIC50: −log10 of the molar value.

For the first assay, the target named is GST tagged IRAK-4 (Homo sapiens (Human), UniProt Q9NWZ3). Kind of assay: IRAK-4 Kinase Assay (IMAP fluorescence polarization). In kind it is biochemical.
GST tagged IRAK-4, sequence (Q9NWZ3 whole entry): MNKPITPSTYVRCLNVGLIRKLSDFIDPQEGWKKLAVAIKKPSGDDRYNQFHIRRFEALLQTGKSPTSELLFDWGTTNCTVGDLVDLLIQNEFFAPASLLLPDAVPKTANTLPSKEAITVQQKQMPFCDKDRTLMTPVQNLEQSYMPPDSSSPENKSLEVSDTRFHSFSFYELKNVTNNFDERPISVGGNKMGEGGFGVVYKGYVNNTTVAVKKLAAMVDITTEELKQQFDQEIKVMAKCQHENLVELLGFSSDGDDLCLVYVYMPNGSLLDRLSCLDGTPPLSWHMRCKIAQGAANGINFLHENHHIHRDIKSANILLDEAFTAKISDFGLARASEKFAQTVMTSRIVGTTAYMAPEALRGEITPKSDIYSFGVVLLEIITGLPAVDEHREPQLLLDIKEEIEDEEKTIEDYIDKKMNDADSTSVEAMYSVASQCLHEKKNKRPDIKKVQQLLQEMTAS
Settings: not given
Here is the method:
The kinase activity of IRAK-4 is determined by its ability to catalyze the phosphorylation of a fluorescent polypeptide substrate. The extent of phosphorylation is measured using the IMAP technology (Molecular Devices) where the phosphorylated fluorescent substrate binds to the large M(III)-based nanoparticles which reduces the rotational speed of the substrate and thus increases its fluorescent polarization (FP).
20 μl reaction mixture contains 10 mM TriHCl, pH 7.2, 0.5 nM GST tagged IRAK-4 (SignalChem), 100 nM fluorescent peptide substrate (RP7030, Molecular Devices), 100 μM ATP, 1 mM DTT, 1 mM MgCl2, and 0.01% Tween 20. The reaction is initiated by the addition of ATP. After incubation for 30 minutes at 25° C., 60 μl of Progressive IMAP Reagent (Molecular Devices) is added to stop the reaction. Change in RP7030's FP is determined by a FP reader (Analyst HT, LH, BioSystems).
(In fluorescence polarisation assays a small probe gives low polarisation when free and higher when bound to something large.)
A word on the pIC50: it is the negative decadic logarithm of the IC50, by convention in mol/L. Compound “N-(3-(1-methylpiperidin-4-yl)-1-(5-methylpyridin-2-yl)-1H-pyrazol-5-yl)pyrazolo[1,5-a]pyrimidine-3-carboxamide [Example 399]” gave a pIC50 greater than 7.00.

The assay is the same for the next values; noted with them: 100 μM ATP, 30 minutes at 25° C.
`[2H]C([2H])([2H])c1ccc(-n2nc(N3CCN(C)CC3)cc2NC(=O)c2cnn3cccnc23)nc1` [Example 198, N-(3-(4-methylpiperazin-1-yl)-1-(5-trideuteromethylpyridin-2-yl)-1H-pyrazol-5-yl)pyrazolo[1,5-a]pyrimidine-3-carboxamide] showed a pIC50 greater than 7.00.

`Cc1ccc(-n2nc(C3CCN(Cc4cn[nH]c4)CC3)cc2NC(=O)c2cnn3cccnc23)cc1` [Example 233, N-{1-(4-methylphenyl)-3-[1-(1H-pyrazol-4-ylmethyl)piperidin-4-yl]-1H-pyrazol-5-yl}pyrazolo[1,5-a]pyrimidine-3-carboxamide] showed a pIC50 greater than 7.00. `O=C(Nc1cc(C2CCNCC2)nn1-c1ccc(C2CC2)cn1)c1cnn2cccnc12` [Example 146, N-(1-(5-cyclopropylpyridin-2-yl)-3-(piperidin-4-yl)-1H-pyrazol-5-yl)pyrazolo[1,5-a]pyrimidine-3-carboxamide] gave a pIC50 greater than 7.00. Same read-out and setting: then `COc1ccc(-n2nc(C3CCNCC3)cc2NC(=O)c2cnn3cc(C(N)=O)cnc23)cc1` [Example 105, N3-(1-(4-methoxyphenyl)-3-(piperidin-4-yl)-1H-pyrazol-5-yl)pyrazolo[1,5-a]pyrimidine-3,6-dicarboxamide], with greater than 7.00; and `Cc1ccc(-n2nc(C3CCN(C(=O)CCN(C)C)CC3)cc2NC(=O)c2cnn3cc(Br)cnc23)cc1` [Example 113, 6-bromo-N-(3-(1-(3-(dimethylamino)propanoyl)piperidin-4-yl)-1-(p-tolyl)-1H-pyrazol-5-yl)pyrazolo[1,5-a]pyrimidine-3-carboxamide], with greater than 7.00; and `Cc1ccc(-n2nc(C3CCN(Cc4ccccn4)CC3)cc2NC(=O)c2cnn3cccnc23)cc1` [Example 226, N-{1-(4-methylphenyl)-3-[1-(pyridin-2-ylmethyl)piperidin-4-yl]-1H-pyrazol-5-yl}pyrazolo[1,5-a]pyrimidine-3-carboxamide], with greater than 7.00. Still for that read-out and setting: then `Cc1ccc(-n2nc(C3CCC(C(=O)N(C)C)CC3)cc2NC(=O)c2cnn3cccnc23)cc1` (stereo not drawn) [Example 96, N-(3-(4-(dimethylcarbamoyl)cyclohexyl)-1-(p-tolyl)-1H-pyrazol-5-yl)pyrazolo[1,5-a]pyrimidine-3-carboxamide], with greater than 7.00; and `Cc1ccc(-n2nc(C3CCN(C4CCCC4)CC3)cc2NC(=O)c2cnn3cccnc23)cc1` [Example 325, N-(3-(1-cyclopentylpiperidin-4-yl)-1-(p-tolyl)-1H-pyrazol-5-yl)pyrazolo[1,5-a]pyrimidine-3-carboxamide], with greater than 7.00. In the case of `Cc1ccc(-n2nc(C3CCN(CC(F)(F)F)CC3)cc2NC(=O)c2cnn3cccnc23)cc1` [Example 41, N-(1-(p-tolyl)-3-(1-(2,2,2-trifluoroethyl)piperidin-4-yl)-1H-pyrazol-5-yl)pyrazolo[1,5-a]pyrimidine-3-carboxamide], the pIC50 is greater than 7.00. `CN1CCC(c2cc(NC(=O)c3cnn4cccnc34)n(-c3ccc(C4CC4)cn3)n2)CC1` [Example 147, N-(1-(5-cyclopropylpyridin-2-yl)-3-(1-methylpiperidin-4-yl)-1H-pyrazol-5-yl)pyrazolo[1,5-a]pyrimidine-3-carboxamide] had a pIC50 greater than 7.00. Same read-out and setting: then `Cc1ccc(-n2nc(N3CCN(C)CC3)cc2NC(=O)c2cnn3cccnc23)nc1` [Example 197, N-(3-(4-methylpiperazin-1-yl)-1-(5-methylpyridin-2-yl)-1H-pyrazol-5-yl)pyrazolo[1,5-a]pyrimidine-3-carboxamide], with greater than 7.00; and `Cc1ccc(-n2nc(N3CCOCC3)cc2NC(=O)c2cnn3cccnc23)nc1` [Example 202, N-(1-(5-methylpyridin-2-yl)-3-morpholino-1H-pyrazol-5-yl)pyrazolo[1,5-a]pyrimidine-3-carboxamide], with greater than 7.00.

Staying with this assay, now noted: 100 μM ATP, 30 minutes at 25° C.; μM.
The term IC50 denotes the point on the concentration scale where inhibition reaches its midpoint. A lower IC50 goes with inhibition by little substance. Compound `Cc1ccc(-n2nc(C3CCCNC3)cc2NC(=O)c2cnn3cccnc23)cc1` (stereo not drawn) [Example 42, N-(3-(piperidin-3-yl)-1-(p-tolyl)-1H-pyrazol-5-yl)pyrazolo[1,5-a]pyrimidine-3-carboxamide] returned an IC50 of less than 1 µM. Same read-out and setting: then `O=C(Nc1cc(C2CCNCC2)nn1-c1ccc(Cl)cc1)c1cnn2cccnc12` [Example 9, N-(1-(4-chlorophenyl)-3-(piperidin-4-yl)-1H-pyrazol-5-yl)pyrazolo[1,5-a]pyrimidine-3-carboxamide], with less than 1 µM; and `Cc1ccc(-n2nc(C3CCN(S(=O)(=O)c4cn(C)c(C)n4)CC3)cc2NC(=O)c2cnn3cccnc23)cc1` [Example 386, N-[3-{1-[(1,2-dimethyl-1H-imidazol-4-yl)sulfonyl]piperidin-4-yl}-1-(4-methylphenyl)-1H-pyrazol-5-yl]pyrazolo[1,5-a]pyrimidine-3-carboxamide], with less than 1 µM; and `Cc1ccc(-n2nc(C3CCN(C4CCC(F)(F)CC4)CC3)cc2NC(=O)c2cnn3cccnc23)cc1` [Example 259, N-{3-[1-(4,4-difluorocyclohexyl)piperidin-4-yl]-1-(4-methylphenyl)-1H-pyrazol-5-yl}pyrazolo[1,5-a]pyrimidine-3-carboxamide], with less than 1 µM.

The compound `CCN(CC)S(=O)(=O)c1ccc(-c2cc(NC(=O)c3cnn4cccnc34)n(-c3ccc(C)cc3)n2)c(C)c1` [Example 340, N-{3-[4-(diethylsulfamoyl)-2-methylphenyl]-1-(4-methylphenyl)-1H-pyrazol-5-yl}pyrazolo[1,5-a]pyrimidine-3-carboxamide] gave an IC50 of less than 1 µM. Compound `Cc1ccc(-n2nc(C3CCNCC3)cc2NC(=O)c2cnn3cccnc23)cn1` [Example 167, N-(1-(6-methylpyridin-3-yl)-3-(piperidin-4-yl)-1H-pyrazol-5-yl)pyrazolo[1,5-a]pyrimidine-3-carboxamide] came in with an IC50 greater than 1 µM. Still for that read-out and setting: then `Cc1ccc(-n2nc(C3CCN(S(=O)(=O)c4cc(F)cc(F)c4)CC3)cc2NC(=O)c2cnn3cccnc23)cc1` [Example 360, N-[3-{1-[(3,5-difluorophenyl)sulfonyl]piperidin-4-yl}-1-(4-methylphenyl)-1H-pyrazol-5-yl]pyrazolo[1,5-a]pyrimidine-3-carboxamide], with less than 1 µM; and `Cc1ccc(-n2nc(-c3cncc(CO)c3)cc2NC(=O)c2cnn3cccnc23)cc1` [Example 332, N-{3-[5-(hydroxymethyl)pyridin-3-yl]-1-(4-methylphenyl)-1H-pyrazol-5-yl}pyrazolo[1,5-a]pyrimidine-3-carboxamide], with less than 1 µM; and `Cc1ccc(-n2nc(C3CCN(S(=O)(=O)c4ccc(C#N)cc4)CC3)cc2NC(=O)c2cnn3cccnc23)cc1` [Example 380, N-[3-{1-[(4-cyanophenyl)sulfonyl]piperidin-4-yl}-1-(4-methylphenyl)-1H-pyrazol-5-yl]pyrazolo[1,5-a]pyrimidine-3-carboxamide], with less than 1 µM. Still for that read-out and setting: then `Cc1ccc(-n2nc(-c3ccc(S(=O)(=O)C(C)C)cc3)cc2NC(=O)c2cnn3cccnc23)cc1` [Example 341, N-[3-{4-[(1-methylethyl)sulfonyl]phenyl}-1-(4-methylphenyl)-1H-pyrazol-5-yl]pyrazolo[1,5-a]pyrimidine-3-carboxamide], with less than 1 µM; and `COc1ccc(-n2nc(C3CCN(S(=O)(=O)C(F)(F)F)CC3)cc2NC(=O)c2cnn3cccnc23)cc1` [Example 30, N-(1-(4-methoxyphenyl)-3-(1-((trifluoromethyl)sulfonyl)piperidin-4-yl)-1H-pyrazol-5-yl)pyrazolo[1,5-a]pyrimidine-3-carboxamide], with greater than 1 µM; and `CS(=O)(=O)N1CCC(c2cc(NC(=O)c3cnn4cccnc34)n(-c3ccccn3)n2)CC1` [Example 173, N-(3-(1-(methylsulfonyl)piperidin-4-yl)-1-(pyridin-2-yl)-1H-pyrazol-5-yl)pyrazolo[1,5-a]pyrimidine-3-carboxamide], with less than 1 µM.

Compound `Cc1ccc(-n2nc(-c3cnn(C)c3)cc2NC(=O)c2cnn3cccnc23)cc1` [Example 326, N-[1′-methyl-1-(4-methylphenyl)-1H,1′H-3,4′-bipyrazol-5-]pyrazolo[1,5-a]pyrimidine-3-carboxamide] gave an IC50 of less than 1 µM.

`Cc1ccc(-n2nc(C3CNC3)cc2NC(=O)c2cnn3cccnc23)cc1` [Example 82, N-(3-(azetidin-3-yl)-1-(p-tolyl)-1H-pyrazol-5-yl)pyrazolo[1,5-a]pyrimidine-3-carboxamide]: the IC50 was greater than 1 µM.

`Cc1ccc(-n2nc(C3CCS(=O)(=O)CC3)cc2NC(=O)c2cnn3cccnc23)cc1` [Example 98, N-(3-(1,1-dioxidotetrahydro-2H-thiopyran-4-yl)-1-(p-tolyl)-1H-pyrazol-5-yl)pyrazolo[1,5-a]pyrimidine-3-carboxamide] returned an IC50 of less than 1 µM. Same read-out and setting: then `Cc1ccc(-n2nc(C3COCCN3)cc2NC(=O)c2cnn3cccnc23)nc1` (stereo not drawn) [Example 166, N-(1-(5-methylpyridin-2-yl)-3-(morpholin-3-yl)-1H-pyrazol-5-yl)pyrazolo[1,5-a]pyrimidine-3-carboxamide], with less than 1 µM; and `CC(=O)N1CCC(c2cc(NC(=O)c3cnn4cccnc34)n(-c3ccc(C)cc3)n2)CC1` [Example 31, N-(3-(1-acetylpiperidin-4-yl)-1-(p-tolyl)-1H-pyrazol-5-yl)pyrazolo[1,5-a]pyrimidine-3-carboxamide], with less than 1 µM.

Values taken from patent publication US9169260B2 (MERCK SHARP & DOHME CORP., priority 2011, dated 2015).
